The results in this text go back to patent US20130280269A1, “Manipulation of HSP70 and IRE1Alpha Protein Interactions” (National University of Ireland, priority 2010, published 2013).

In test [1] the test system is PC12 cells. Kind of test: Release of cytochrome c into the cytosol, western blot of cytosolic extracts. The class given is cell-based, Rat. Particulars: 0.25 μM Tg, 24 h. On the procedure: (§1) FIG. 2. Hsp72 prevents ER stress-induced loss of mitochondrial membrane potential and cytochrome c release. (A) The control (Neo) and Hsp72 expressing (Hsp72) PC12 cells were either untreated (Control) or treated with (0.25 μM) Tg for the indicated time and mitochondrial membrane potential was assessed by TRME staining and flow cytometry. A representative image of three independent experiments is shown. (B) The control (Neo) and Hsp72 expressing (Hsp72) PC12 cells were treated (0.25 μM) Tg for indicated time points. Following treatment cells were incubated with TMRE (100 nM). Mitochondrial membrane potential was monitored by measuring the fluorescence intensity at 582 nm (FL2). Average and error bars represent mean±SD from three independent experiments. (C) The control (Neo) and Hsp72 expressing (Hsp72) PC12 cells were treated with (0.25 μM) Tg for the indicated time. Cytosolic extracts were prepared as described in materials and methods and resolved by SDS-PAGE followed by western blotting using antibodies against Cytochrome c and β-actin.
To further study the involvement of mitochondria in ER stress-induced cell death, the release of cytochrome c into the cytosol was assessed. […]

Test [2] deals with PC12 cells. The test is described as follows: Loss of mitochondrial membrane potential (ΔΨm), TMRE staining and flow cytometry. The note with it: 48 h, thapsigargin 0.25 μM. It counts as cell-based, Rat. The protocol:
as §1
The effect of Hsp72 on the dissipation of ΔΨm and release of cytochrome c to the cytosol upon exposure to ER stress stimuli was evaluated. To quantify ΔΨm, probe tetramethylrhodamine ethyl ester (TMRE, Molecular Probes), a potentiometric fluorescent dye that incorporates into mitochondria in a ΔΨm-dependent manner, was used. Cells were trypsinized and then were either left untreated or treated with 0.25 μM thapsigargin. The cells were then incubated with TMRE for 30 min in the dark and analyzed by flow cytometry using a FACSCalibur instrument. […] The expression of Hsp72 inhibited the loss of ΔΨm (FIG. 2A). At 48 h, loss of ΔΨm was detected in 80-90% of Neo cells treated with thapsigargin or tunicamycin, respectively (FIG. 2B).
On the technique in general: Flow cytometry measures light scatter and fluorescence of single cells or particles in a stream.

In test [3] the target is T1, wild-type Hsp72 (inducible form of Hsp70), stably expressed in PC12 cells (Homo sapiens (Human), UniProt P0DMV8 2-641, limits assumed).
T1 construct: Expressed from a plasmid (gift of Dr. Tomomi Gotoh) in rat PC12 cells and tested in cell lysates by co-immunoprecipitation; also called Hsp72 WT; inducible Hsp70
The test is described as follows: co-immunoprecipitation with HA-agarose from Hsp72-expressing PC12 cells, western blot (FIG. 5C). On the procedure: FIG. 5. Hsp72 forms a protein complex with IRE1α, and ATPase domain of HSP72 is critical for IRE1α binding. (A) Schematic diagram for IRE1α structure domains and expression constructs. (B) Schematic diagram for Hsp72 structure domains and expression constructs. (C) Hsp72 expressing PC12 cells (Hsp2) were transfected with empty vector (EV) or expression vectors for IRE1α FL-HA or IRE1α ΔC-HA. After 24 h, cells were either left untreated (UT) or treated with (0.25 μM) Tg for 12 h and then the co-precipitation of Hsp72 with IRE1α FL-HA or IRE1α ΔC-HA was evaluated by IP and western blot. (D) PC12 cells expressing the indicated Hsp72 constructs were transfected with IRE1α FL-HA. […] Co-precipitation of wild-type, ΔATPase and ΔEEVD mutant of Hsp72 with IRE1α FL-HA was evaluated by IP and western blot. […] After 48 hr, IRE1α FL-HA was immunoprecipitated and its association with endogenous Hsp72 was assessed by western blot. (F) Endogenous Hsp72 was immunoprecipitated from HEK 293 cells transiently transfected with IRE1α FL-HA expression vector or empty vector (EV), and its association with IRE1α was determined by western blot analysis. […]
Interaction of Hsp72-IRE1α was determined by co-immunoprecipitation assays. […] Protein complexes were extracted by boiling the beads with 2× lane marker buffer and analysed by western blotting as described above using the primary antibody IRE1α (Cell Signalling Cat#3294S). […]
In general terms: Immunoblotting shows a protein as a band on a membrane.

T1 sequence (P0DMV8 2-641 limits assumed): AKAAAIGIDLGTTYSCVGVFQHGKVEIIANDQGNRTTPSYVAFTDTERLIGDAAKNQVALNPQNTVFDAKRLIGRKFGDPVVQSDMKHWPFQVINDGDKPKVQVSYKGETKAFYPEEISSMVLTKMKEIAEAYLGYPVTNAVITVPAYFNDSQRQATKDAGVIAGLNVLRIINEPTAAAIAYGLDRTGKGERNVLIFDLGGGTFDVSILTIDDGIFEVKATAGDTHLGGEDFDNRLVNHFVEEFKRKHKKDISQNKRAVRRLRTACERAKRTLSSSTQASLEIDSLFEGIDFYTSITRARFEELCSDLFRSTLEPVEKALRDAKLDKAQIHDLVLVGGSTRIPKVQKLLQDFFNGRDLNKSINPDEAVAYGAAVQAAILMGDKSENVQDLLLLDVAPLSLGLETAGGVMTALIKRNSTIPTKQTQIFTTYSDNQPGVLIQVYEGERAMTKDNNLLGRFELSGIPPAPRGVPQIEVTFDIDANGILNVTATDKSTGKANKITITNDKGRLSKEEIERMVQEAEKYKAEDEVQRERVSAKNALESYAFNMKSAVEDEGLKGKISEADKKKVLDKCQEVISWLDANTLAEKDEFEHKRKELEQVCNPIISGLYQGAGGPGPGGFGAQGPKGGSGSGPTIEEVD

In the case of `C/C=C(/C)C(=O)O[C@H]1C(C)=C2[C@H]([C@@H]1OC(=O)CCCCCCC)[C@@](C)(OC(C)=O)C[C@H](OC(=O)CCC)[C@@]1(O)[C@H]2OC(=O)[C@@]1(C)O` [thapsigargin], the “release of cytochrome c induced by thapsigargin” value in the test on PC12 cells [1] (Hsp72 expressing PC12 cells, compared with Neo cells) is listed as “significantly reduced”. Further, the “release of cytochrome c from mitochondria to the cytoplasm” value in the test with PC12 cells [1] (control (Neo) PC12 cells) was “triggered release of cytochrome c”. Further, the “loss of ΔΨm, cells” value was 50% in the test with PC12 cells [2] (Hsp72 expressing PC12 cells) and 80% in the test with PC12 cells [2] (control (Neo) PC12 cells).

In the case of tunicamycin, the “loss of ΔΨm, cells” value in the test with PC12 cells [2] (Hsp72 expressing PC12 cells) is 50%; with PC12 cells [2] (control (Neo) PC12 cells), 90%.

B1: IRE1α ΔC-HA (enzyme)
chain: IFGSTSTVTLPETLLFVSTLDGSLHAVSKRTGSIKWTLKEDPVLQVPTHVEEPAFLPDPNDGSLYTLGSKNNEGLTKLPFTIPELVQASPCRSSDGILYMGKKQDIWYVIDLLTGEKQQTLSSAFADSLCPSTSLLYLGRTEYTITMYDTKTRELRWNATYFDYAASLPEDDVDYKMSHFVSNGDGLVVTVDSESGDVLWIQNYASPVVAFYVWQREGLRKVMHINVAVETLRYLTFMSGEVGRITKWKYPFPKETEAKSKLTPTLYVGKYSTSLYASPSMVHEGVAVVPRGSTLPLLEGPQTDGVTIGDKGECVITPSTDVKFDPGLKSKNKLNYLRNYWLLIGHHETPLSASTKMLERFPNNLPKHRENVIPADSEKKSFEEVINLVDQTSENAPTTVSRDVEEKPAHAPARPEAPVDSMLKDMATIILSTFLLIGWVAFIITYPLSMHQQQQLQHQQFQKELEKIQLLQQQQQQLPFH
notes: HA-tagged IRE1α lacking the cytosolic C-terminal region; also called IRE1α DC-HA; not shown: HA tag
As for B1, the binding result in test [3] is “no binding”.
